We go through 15 compounds from publication PMC6522510 (Nature Communications, 2019).

Like-named read-outs stand apart in the source and are kept apart here.

Parameters in all cases: species or system AML cell lines (8); Primary HTS, single concentration about 10 uM, Cell Titer Glo viability; log10 luminescence, per cent inhibition relative to cycloheximide control
Holding throughout (conditions): 72 h, relative to cycloheximide control, log10 luminescence, inhibitor
A general note: In ATP-based viability assays light output follows the ATP content of the culture.

Assay [1] has as its system CHRF288-11.
Assay [2] relates to CMK.
Assay [3] deals with CMS.
Assay [4] relates to M07e.
For assay [5], the system named is ML-2.
For assay [6], the system named is MOLM-13.
The test system of assay [7] is MV4-11.
In assay [8] the test system is U937.

On to `COc1c(C(N)=O)cc(-c2ccc(Cl)cc2)cc1-c1ccc(S(N)(=O)=O)cc1` [SJ000573112-1, R12706/72/1], for which the CHRF288-11 %inh in assay [1] is listed as -3.227%. For the same compound, the CMK %inh in assay [2] was found to be 7.525%. In addition, the CMS %inh in assay [3] is on record as 5.358%. The M07e %inh in assay [4] is -1.128%. In addition, the ML-2 %inh in assay [5] was 3.182%. The MOLM-13 %inh in assay [6] is 6.365%. The MV4-11 %inh in assay [7] was -1.028%. Moreover, the U937 %inh in assay [8] came out at 1.708%.

In the case of `O=C1NC(=O)C(c2ccc(Cl)cc2)=C1Nc1ccc(Cl)c(C(=O)O)c1` [SJ000573148-1, DH98298-170B2], the CHRF288-11 %inh in assay [1] is on record as -1.873%. Also, the CMK %inh in assay [2] is -5.939%. The CMS %inh in assay [3] was -1.744%. The M07e %inh in assay [4] is recorded as -2.934%. Moreover, the ML-2 %inh in assay [5] is listed as 0.6305%. The MOLM-13 %inh in assay [6] was -3.138%. Also, in assay [7], the MV4-11 %inh is reported as -6.646%. For the same compound, the U937 %inh in assay [8] was -3.231%.

With `Cn1cc(C2=C(c3cccc4ccccc34)C(=O)NC2=O)c2ccccc21` [SJ000581136-1], in assay [1], the CHRF288-11 %inh worked out at 6.432%. In addition, in assay [2], the CMK %inh was 2.941%. Further, the CMS %inh in assay [3] is on record as 3.922%. The M07e %inh in assay [4] was found to be 1.122%. The ML-2 %inh in assay [5] is on record as -1.062%. For the same compound, the MOLM-13 %inh in assay [6] was -0.09214%. For the same compound, the MV4-11 %inh in assay [7] came to 3.742%. For the same compound, the U937 %inh in assay [8] is 2.302%.

With `CC(C)(O)CCc1cccc(C(=O)c2cnn(-c3ccc(F)cc3)c2N)c1` [SJ000581047-1], in assay [1], the CHRF288-11 %inh stood at 1.391%. The CMK %inh in assay [2] is -5.065%. In addition, the CMS %inh in assay [3] came out at 5.394%. Moreover, in assay [4], the M07e %inh stood at 3.158%. The ML-2 %inh in assay [5] is 1.278%. Besides, the MOLM-13 %inh in assay [6] is given as -1.69%. Also, in assay [7], the MV4-11 %inh was -0.34%. Also, the U937 %inh in assay [8] is on record as -2.635%.

Turning to `O=C1NC(=O)C(c2cccc(Cl)c2)=C1Nc1ccc(O)c(Cl)c1` [SJ000573172-1, RS98844-062A3], in assay [1], the CHRF288-11 %inh is 12.93%. The CMK %inh in assay [2] amounted to 35.38%. The CMS %inh in assay [3] is 2.425%. Further, in assay [4], the M07e %inh is listed as 6.042%. The ML-2 %inh in assay [5] is 2.635%. In addition, the MOLM-13 %inh in assay [6] turned out to be 11.18%. Further, the MV4-11 %inh in assay [7] came out at 8.124%. The U937 %inh in assay [8] worked out at 3.736%.

In the case of `Cn1c(=O)c(-c2ccccc2Cl)cc2cnc(NC3CCOCC3)nc21` [SJ000581163-1], in assay [1], the CHRF288-11 %inh stood at 6.112%. For the same compound, in assay [2], the CMK %inh is reported as 15.25%. For the same compound, in assay [3], the CMS %inh is 7.391%. In assay [4], the M07e %inh was 8.813%. Further, the ML-2 %inh in assay [5] is 1.667%. Also, the MOLM-13 %inh in assay [6] came to 7.929%. Moreover, the MV4-11 %inh in assay [7] was determined as 5.265%. In addition, the U937 %inh in assay [8] came out at 4.292%.

As to `Fc1ccc(-c2ncn(CCCN3CCOCC3)c2-c2ccncc2)cc1` [SJ000573144-1, LDD-19018-277B], in assay [1], the CHRF288-11 %inh is 5.233%. The CMK %inh in assay [2] was found to be 29.46%. Moreover, the CMS %inh in assay [3] is on record as -0.05724%. Moreover, the M07e %inh in assay [4] was found to be 0.1764%. In addition, the ML-2 %inh in assay [5] worked out at 2.361%. The MOLM-13 %inh in assay [6] is reported as 2.986%. Further, the MV4-11 %inh in assay [7] is on record as -0.2277%. Moreover, in assay [8], the U937 %inh was -0.4661%.

As for `COc1cc(Nc2nccc(-c3cnn4ncccc34)n2)cc(OC)c1` [SJ000573274-1, U16419/146/1], the CHRF288-11 %inh in assay [1] was 52.5%. In assay [2], the CMK %inh came out at 84.54%. The CMS %inh in assay [3] is 100.2%. In addition, the M07e %inh in assay [4] came to 113.9%. Further, the ML-2 %inh in assay [5] turned out to be 59.09%. Besides, the MOLM-13 %inh in assay [6] is 76.09%. Further, the MV4-11 %inh in assay [7] worked out at 76.66%. In addition, the U937 %inh in assay [8] amounted to 80.29%.

As to `COC(=O)Nc1nc2ccc(S(=O)(=O)c3ccc(NC(=O)Nc4cc(C(F)(F)F)ccc4F)cc3)cc2[nH]1` [SJ000573094-1, T229/157/1], the CHRF288-11 %inh in assay [1] worked out at 9.928%. Moreover, the CMK %inh in assay [2] turned out to be 2.078%. Also, in assay [3], the CMS %inh turned out to be 3.097%. The M07e %inh in assay [4] amounted to 3.593%. The ML-2 %inh in assay [5] is -2.541%. Further, the MOLM-13 %inh in assay [6] is on record as 1.464%. Moreover, the MV4-11 %inh in assay [7] is -0.02364%. For the same compound, the U937 %inh in assay [8] is on record as 1.083%.

`CC(C)(C)c1ccc(C(O)CCCN2CCC(C(O)(c3ccccc3)c3ccccc3)CC2)cc1` (stereo not drawn) [SJ000287189-5, TERFENADINE]: the CHRF288-11 %inh in assay [1] is given as 1.988%. Also, in assay [2], the CMK %inh is -4.344%. In assay [3], the CMS %inh was -3.743%. Further, the M07e %inh in assay [4] stood at 132.8%. Further, the ML-2 %inh in assay [5] came out at 1.525%. For the same compound, in assay [6], the MOLM-13 %inh was -1.727%. Also, the MV4-11 %inh in assay [7] was 1.084%. For the same compound, the U937 %inh in assay [8] was found to be 0.7714%.

On to `COc1cccc2c1c(C1=C(c3cn(C)c4ccccc34)C(=O)NC1=O)cn2C` [SJ000581070-1], for which, in assay [1], the CHRF288-11 %inh is reported as 8.87%. For the same compound, in assay [2], the CMK %inh worked out at 10.2%. For the same compound, the CMS %inh in assay [3] is given as -1.314%. Moreover, the M07e %inh in assay [4] was determined as 5.504%. The ML-2 %inh in assay [5] was -0.1682%. In addition, the MOLM-13 %inh in assay [6] is 2.978%. Moreover, in assay [7], the MV4-11 %inh was determined as 0.2803%. For the same compound, in assay [8], the U937 %inh is -0.4175%.

Turning to `OC[C@H]1O[C@@H](O[C@@H]2[C@@H](CO)OC(O)(CO)[C@H]2O)[C@H](O)[C@@H](O)[C@H]1O` (mixture of isomers) [SJ000285579-3, LACTULOSE], the CHRF288-11 %inh in assay [1] (CHRF288-11 %inh, 10 µM) was 0.1599%. In addition, in assay [2] (CMK %inh, 10 µM), the CMK %inh was -4.096%. Also, in assay [3] (CMS %inh, 10 µM), the CMS %inh is given as -1.064%. The M07e %inh in assay [4] (M07e %inh, 10 µM) is 2.568%. For the same compound, the ML-2 %inh in assay [5] (ML-2 %inh, 10 µM) was -0.1648%. Also, in assay [6] (MOLM-13 %inh, 10 µM), the MOLM-13 %inh came out at 2.867%. The MV4-11 %inh in assay [7] (MV4-11 %inh, 10 µM) is on record as 0.8098%. For the same compound, the U937 %inh in assay [8] (U937 %inh, 10 µM) is recorded as -0.7505%.

As for `COc1cc(C)c(NC(=O)CN(C)C)cc1Nc1nc(Nc2cccc(F)c2C(N)=O)c2cc[nH]c2n1` [SJ000573040-1, N5326-72-2], in assay [1], the CHRF288-11 %inh is reported as 60.84%. In assay [2], the CMK %inh was found to be 111.2%. Further, in assay [3], the CMS %inh is 31.36%. The M07e %inh in assay [4] was found to be 103.3%. For the same compound, the ML-2 %inh in assay [5] is reported as 42.89%. Moreover, in assay [6], the MOLM-13 %inh stood at 90.07%. The MV4-11 %inh in assay [7] is 56.47%. In addition, the U937 %inh in assay [8] was 70.41%.

For the compound `Cn1cc(C2=C(c3cccc(NCC(O)CO)c3)C(=O)NC2=O)c2cc(Cl)ccc21` (stereo not drawn) [SJ000581009-1], the CHRF288-11 %inh in assay [1] is recorded as 28.92%. Further, in assay [2], the CMK %inh was 105.4%. Moreover, in assay [3], the CMS %inh was determined as 98.55%. Further, the M07e %inh in assay [4] was 19.12%. The ML-2 %inh in assay [5] came out at 10.75%. The MOLM-13 %inh in assay [6] was 37.38%. In addition, in assay [7], the MV4-11 %inh amounted to 70.02%. In addition, the U937 %inh in assay [8] is recorded as 8.397%.

With `CCCN1CCC(Oc2cc(Nc3nc(Nc4cccc(F)c4C(N)=O)c4cc[nH]c4n3)c(OC)cc2Cl)CC1` [SJ000573297-1, U23772/200/1], in assay [1], the CHRF288-11 %inh amounted to 4.97%. Further, in assay [2], the CMK %inh came to 2.381%. The CMS %inh in assay [3] is recorded as -0.1818%. Also, the M07e %inh in assay [4] turned out to be 3.715%. In assay [5], the ML-2 %inh is reported as 2.245%. Besides, in assay [6], the MOLM-13 %inh is recorded as 2.944%. Also, the MV4-11 %inh in assay [7] is listed as -2.06%. For the same compound, the U937 %inh in assay [8] is on record as 0.7849%.
